Reference: patent US20090239749A1, “Biocidal compositions” (priority 2006, published 2009)
In brackets after ≈: the same amount, converted by molar mass.

Tests used:
[1] = cited from earlier work
Candida albicans (CA) = experiment: Minimum Inhibitory Concentration (MIC) test in YEME media, 96 well plate; type: cell-based
Description: These materials produced according to Examples 4-6 were examined for their biocidal efficacy by following a standardised Minimum Inhibitory Concentration (MIC) test. The test consisted of known number of cells of a strain of Candida albicans (CA) in YEME (yeast extract malt extract media), inoculating concentrations of the active material and blanks contained in a 96 well plate. The plates were incubated at 37° C. overnight, and then examined with a UV plate reader at a wavelength of 550 nm.
Equivalent experiments were also conducted to determine the MIC for the biocide active dissolved in a water miscible solvent. In these cases the “blank” reference material was simply a sample of the solvent containing no active compound.
All experiments were repeated 4 times.
All experiments were conducted in YEME media against a CA culture.

Compound	solubility in water [1]	MIC (Candida albicans (CA); ketoconazole, initial concentration 0.15 mg/ml active, incubated overnight 37° C.)	MIC (Candida albicans (CA); dissolved in a water/propylene glycol cosolvent mixture)
CC1(C)[C@H](C(=O)O[C@H](C#N)c2cccc(Oc3ccccc3)c2)[C@@H]1/C=C(\Cl)C(F)(F)F (racemic) [λ-cyhalothrin]	0.005 µg/mL (≈ 0.0111 µM)	–	–
CO/C=C(/C(=O)OC)c1ccccc1Oc1cc(Oc2ccccc2C#N)ncn1 [Azoxystrobin, methyl(E)-2-{2-[6-(2-cyanophenoxy)pyrimidin-4-yloxy]phenyl}-3-methoxyacrylate]	~6 µg/mL (≈ 14.9 µM)	–	–
N#Cc1c(Cl)c(Cl)c(Cl)c(C#N)c1Cl [Chlorothalonil, 2,4,5,6-tetrachloroisophthalonitrile]	~0.6 µg/mL (≈ 2.26 µM)	–	–
CC(=O)N1CCN(c2ccc(OCC3COC(Cn4ccnc4)(c4ccc(Cl)cc4Cl)O3)cc2)CC1 (stereo not shown) [Ketoconazole, acetyl-dichlorophenyl-imidazole]	–	65 µg/mL (≈ 122 µM)	–
CCCC1COC(Cn2cncn2)(c2ccc(Cl)cc2Cl)O1 (stereo not shown) [Propiconazole, 1-(2-(2,4-dichlorophenyl)-4-propyl-1-1,3-dioxolan-2-ylmethyl)-1H-1,2,4-tri azole]	around 100 mg/L	–	91.6 µg/mL (≈ 268 µM)
Oc1cc(Cl)ccc1Oc1ccc(Cl)cc1Cl [Triclosan, 5-chloro-2-(2,4-dichlorophenoxy)-phenol]	17 µg/mL (≈ 58.7 µM)	–	–
